# ChEMBL document CHEMBL4007488, “Amphiphilic Indole Derivatives as Antimycobacterial Agents: Structure-Activity Relationships and Membrane Targeting Properties” (J Med Chem, 2017)
# Columns and labels:
# [1] = system: Mycobacterium tuberculosis variant bovis; assay: Antimycobacterial activity against Mycobacterium bovis BCG ATCC 35734 after 5 days by broth dilution method; format: functional; conditions: ATCC 35734, 120 h
# [2] = system: Mycobacterium tuberculosis variant bovis; assay: Antimycobacterial activity against Mycobacterium bovis BCG ATCC 35734 assessed as growth inhibition at 10 uM after 5 days relative to control; format: functional; conditions: ATCC 35734, 120 h, read-out: GI
compound,measurement,setting,value
CCCCCCCCn1cc(CN2CCCCC2)c2ccc(F)cc21,MIC50,[1],6 µM
same,MIC90,[1],12 µM
same,inhibition of growth at 10 µM,[2],99%
COc1ccc2c(c1)c(CN1CCCCC1)cn2C/C=C(\C)CCC=C(C)C,MIC50,[1],9 µM
same,MIC90,[1],12 µM
same,inhibition of growth at 10 µM,[2],99%
N#CCCCn1cc(CN2CCCCC2)c2cc(F)ccc21,MIC50,[1],> 50 µM
same,MIC90,[1],> 50 µM
same,inhibition of growth at 10 µM,[2],99%
CCCCCCCCn1cc(CNCCC)c2cc(F)ccc21,MIC50,[1],10 µM
same,MIC90,[1],20 µM
same,inhibition of growth at 10 µM,[2],99%
CCCCCCCCn1cc(CN2CCCCCC2)c2ccc(OC)cc21,MIC50,[1],4 µM
same,MIC90,[1],6 µM
same,inhibition of growth at 10 µM,[2],99%
CC(C)=CCC/C(C)=C/Cn1cc(CNC2CCCC2)c2cc(F)ccc21,MIC50,[1],8 µM
same,MIC90,[1],14 µM
same,inhibition of growth at 10 µM,[2],99%
CCCCn1cc(CN2CCCCC2)c2cc(F)ccc21,MIC50,[1],> 50 µM
same,MIC90,[1],100 µM
same,inhibition of growth at 10 µM,[2],99%
CCCCCCCCn1cc(CN2CCC(C)CC2)c2c(F)cccc21,MIC50,[1],2 µM
same,MIC90,[1],5 µM
same,inhibition of growth at 10 µM,[2],99%
CCCCCCCCn1cc(CN2CCCCCC2)c2c(OC)cccc21,MIC50,[1],6 µM
same,MIC90,[1],11 µM
same,inhibition of growth at 10 µM,[2],99%
Fc1ccc2[nH]cc(CN3CCCCC3)c2c1,MIC50,[1],> 50 µM
same,MIC90,[1],> 50 µM
same,inhibition of growth at 10 µM,[2],99%
CCCCCCCCn1cc(CN(C)CCC)c2cc(F)ccc21,MIC50,[1],12 µM
same,MIC90,[1],35 µM
same,inhibition of growth at 10 µM,[2],99%
CCCCCCCCn1ccc2cc(F)ccc21,MIC50,[1],> 50 µM
same,MIC90,[1],> 50 µM
same,inhibition of growth at 10 µM,[2],99%
CCCCCCCCn1cc(CN2CCCCC2)c2c(OC)cccc21,MIC50,[1],16 µM
same,MIC90,[1],35 µM
same,inhibition of growth at 10 µM,[2],99%
CCCCCCCCn1cc(CN2CCCCCC2)c2cc(F)ccc21,MIC50,[1],4 µM
same,MIC90,[1],6 µM
same,inhibition of growth at 10 µM,[2],99%
CCCCCCCCn1cc(CN2CCC3(CC2)OCCO3)c2cccc(F)c21,MIC50,[1],3 µM
same,MIC90,[1],7 µM
same,inhibition of growth at 10 µM,[2],99%
CCCCNC(=O)Cn1cc(CN2CCCCC2)c2cc(F)ccc21,MIC50,[1],> 50 µM
same,MIC90,[1],> 50 µM
same,inhibition of growth at 10 µM,[2],99%
CCCCCCCCn1cc(C(=O)N2CCCCCC2)c2cc(F)ccc21,MIC50,[1],> 50 µM
same,MIC90,[1],> 50 µM
same,inhibition of growth at 10 µM,[2],99%
CCN1CCN(Cc2cn(C/C=C(\C)CCC=C(C)C)c3ccc(F)cc23)CC1,MIC50,[1],13 µM
same,MIC90,[1],25 µM
same,inhibition of growth at 10 µM,[2],99%
CCCCCCCCn1cc(CN2CCC(C)CC2)c2cccc(F)c21,MIC50,[1],4 µM
same,MIC90,[1],6 µM
same,inhibition of growth at 10 µM,[2],99%
CCCCCCCCn1cc(CN2CCSCC2)c2cc(F)ccc21,MIC50,[1],11 µM
same,MIC90,[1],> 50 µM
same,inhibition of growth at 10 µM,[2],99%
CCCCCCCCn1cc(CN2CCC3(CC2)OCCO3)c2c(F)cccc21,MIC50,[1],3 µM
same,MIC90,[1],6 µM
same,inhibition of growth at 10 µM,[2],99%
CCCCCCCCn1cc(CN(CC)CC)c2cc(F)ccc21,MIC50,[1],10 µM
same,MIC90,[1],36 µM
same,inhibition of growth at 10 µM,[2],99%
CCCCCCCCn1cc(CNC2CCCCCC2)c2cc(F)ccc21,MIC50,[1],3 µM
same,MIC90,[1],16 µM
same,inhibition of growth at 10 µM,[2],99%
CCCCN(CCCC)Cc1cn(C/C=C(\C)CCC=C(C)C)c2ccc(F)cc12,MIC50,[1],13 µM
same,MIC90,[1],25.5 µM
same,inhibition of growth at 10 µM,[2],99%
CC(C)=CCC/C(C)=C/Cn1cc(CN2CCCCC2)c2cc(Cl)ccc21,MIC50,[1],7 µM
same,MIC90,[1],10 µM
same,inhibition of growth at 10 µM,[2],99%
CCCCCCCCn1cc(CN2CCCCCC2)c2cccc(OC)c21,MIC50,[1],6 µM
same,MIC90,[1],10 µM
same,inhibition of growth at 10 µM,[2],99%
CCCCCCCCn1cc(CN2CCCCCC2)c2cccc(F)c21,MIC50,[1],5 µM
same,MIC90,[1],8 µM
same,inhibition of growth at 10 µM,[2],99%
CCCCCCCCn1cc(CN2CCC(C)CC2)c2cccc(OC)c21,MIC50,[1],4 µM
same,MIC90,[1],8 µM
same,inhibition of growth at 10 µM,[2],99%
CCCCCCCCn1cc(CNC23CC4CC(CC(C4)C2)C3)c2cc(F)ccc21,MIC50,[1],2.5 to 3 µM
same,MIC90,[1],5.5 to 6 µM
same,inhibition of growth at 10 µM,[2],99%
CC(C)=CCC/C(C)=C/Cn1cc(CN2CCS(=O)(=O)CC2)c2cc(F)ccc21,MIC50,[1],> 50 µM
same,MIC90,[1],> 50 µM
same,inhibition of growth at 10 µM,[2],99%
CCCCCCCCn1cc(CN2CCN(C)CC2)c2cc(F)ccc21,MIC50,[1],13 µM
same,MIC90,[1],36 µM
same,inhibition of growth at 10 µM,[2],99%
CCCCCCCCn1cc(CN2CCC(C)CC2)c2c(OC)cccc21,MIC50,[1],10 µM
same,MIC90,[1],18 µM
same,inhibition of growth at 10 µM,[2],99%
CCCN(CC)Cc1cn(C/C=C(\C)CCC=C(C)C)c2ccc(F)cc12,MIC50,[1],13 µM
same,MIC90,[1],25 µM
same,inhibition of growth at 10 µM,[2],99%
CC(C)=CCC/C(C)=C/Cn1cc(CN2CCSCC2)c2cc(F)ccc21,MIC50,[1],15 µM
same,MIC90,[1],23 µM
same,inhibition of growth at 10 µM,[2],99%
CCCCCCCCn1cc(CN2CCC(C)CC2)c2ccc(OC)cc21,MIC50,[1],3 µM
same,MIC90,[1],5 µM
same,inhibition of growth at 10 µM,[2],99%
